Marks after values point to notes of the source that are not given here. Starred links: 1 amine or outer side, 2 acyl side, 3 side chain; linkers in the order of their positions; H or OH if unused. Non-standard residues stand in square brackets, D forms with d. Residues, ends and D or L forms follow the SMILES beside them. Groups on a side chain read outwards from the residue. *: point of attachment. C18 diacid = O=C(O)CCCCCCCCCCCCCCCCC(=O)*; γGlu = O=C(O)[C@H](CCC(=O)[*:2])N[*:1]; εLys = N[C@@H](CCCCN[*:1])C(=O)[*:2]; AEEA = NCCOCCOCC(=O)O; Aib = CC(C)(N)C(=O)O
Assay: Pharmacokinetic study in dogs after oral dosing of tablets with SNAC
Type: in vivo, Beagle dogs
Procedure: The purpose of this example is to determine the half-life and plasma exposure in vivo of the compounds of the present invention after p.o. administration to beagle dogs, i.e. the terminal half-life and concentration of test substance that reaches circulation with time. This is done in a pharmacokinetic (PK) study, where these parameters of the compound in question are determined. By terminal half-life is generally meant the period of time it takes to halve a certain plasma concentration, measured after the initial distribution phase.
The amount of SNAC in the tablet composition was 100-300 mg, the amount of magnesium stearate in the tablet composition was 7.7 mg, and the target amount of each test substance in the tablet composition was 3-4 mg.
Male beagle dogs, 1-7 years of age and weighing 9-17 kg during the study period, were included in the study. The dogs were dosed in a fasting state. The dogs were group housed in pens (12 hours light: 12 hours dark), and fed individually and restrictedly once daily with Royal Canin Medium Adult dog food (Royal Canin Products, China Branch, or Brogaarden A/S, Denmark). The dogs were used for repeated PK studies with a suitable wash-out period between successive dosing. An appropriate acclimatization period was given prior to initiation of the first PK study. All handling, dosing, and blood sampling of the animals were performed by trained and skilled staff. Before the studies, the dogs were fasted overnight and from 0 to 4 hours after dosing. The dogs were restricted to water 1 hour before dosing until 4 hours after dosing, but otherwise had ad libitum access to water during the whole period.
The compositions were administered by a single oral dosing to the dogs in groups of 6-8 dogs. […] The mouth was then closed, and 10 mL of tap water was given by syringe or gavage to facilitate swallowing of the tablet.
For each blood sample time point, approximately 0.8 mL of whole blood was collected in a 1.5 mL EDTA-coated tube, which was gently turned to mix the sample with EDTA. Blood samples were collected in EDTA buffer (8 mM) and then centrifuged at 4° C. and 2000g for 10 minutes. Plasma was pipetted into Micronic tubes on dry ice, and kept at −20° C. or lower until analysis. Blood samples were taken as appropriate, for example from a venflon in the cephalic vein in the front leg for the first 2 hours and then with syringe from the jugular vein for the rest of the time points. The first few drops were allowed to drain from the venflon to avoid heparin saline from the venflon in the sample.
All blood samples were collected into test tubes containing EDTA for stabilisation and kept on ice until centrifugation. Plasma was separated from whole blood by centrifugation and the plasma was stored at −20° C. or lower until analysis.
The plasma was analysed for test substance using LC-MS (Liquid Chromatography-Mass Spectrometry) as known to the person skilled in the art. […] RP-HPLC separation was achieved using a linear gradient of 1:1 acetonitrile/methanol in 1% aqueous formic acid using either: a Phenomenex Onyx Monolithic C18 column (50×2.0 mm) and a flow rate of 0.8 mL/min at 30° C.; or an Agilent Poroshell 120 SB-C18 column (50×2.1 mm, 2.7 μm) at a flow rate of 0.4 mL/min at 60° C. The mass spectrometer was operated in either positive ionization SIM mode or positive ionization PRM mode.
For each individual animal, a plasma concentration-time profile was analysed by a non-compartmental model in Pharsight Phoenix WinNonLin ver. 6.4 software or other relevant software for PK analysis, and the resulting terminal half-life (t1/2), maximum plasma concentration per dose (Cmax/D), time for maximum plasma concentration (tmax), and area under the curve to infinity per dose (AUC/D) were determined. Summary statistics of pharmacokinetic results were presented as median (for tmax), harmonic mean ([…]), or arithmetic mean (Cmax, AUC).

SMILES | Cmax/Dose (oral tablet, 100 mg SNAC, 3 mg test substance, Beagle dogs, arithmetic mean) [kg/L] | Cmax/Dose (dog, in vivo, po) | AUC/Dose (dog, in vivo, po) [kg·h/L]
CC[C@H](C)[C@H](NC(=O)[C@H](Cc1ccccc1)NC(=O)[C@H](CCC(=O)O)NC(=O)[C@H](CCCNC(=N)N)NC(=O)[C@H](C)NC(=O)[C@H](C)NC(=O)[C@H](CCC(N)=O)NC(=O)[C@H](CCCCNC(=O)[C@@H](N)CCCCNC(=O)[C@@H](N)CCCCNC(=O)CC[C@H](NC(=O)CCCCCCCCCCCCCCCCC(=O)O)C(=O)O)NC(=O)[C@H](CCC(=O)O)NC(=O)[C@H](CC(C)C)NC(=O)[C@H](Cc1ccc(O)cc1)NC(=O)[C@@H](NC(=O)[C@H](CO)NC(=O)[C@H](Cc1ccc(O)cc1)NC(=O)[C@H](CC(=O)O)NC(=O)[C@H](CO)NC(=O)[C@@H](NC(=O)[C@H](Cc1ccccc1)NC(=O)[C@@H](NC(=O)CNC(=O)[C@H](CCC(=O)O)NC(=O)C(C)(C)NC(=O)[C@@H](N)Cc1ccc(O)cc1)[C@@H](C)O)[C@@H](C)O)[C@@H](C)CC)C(=O)N[C@@H](CCC(=O)O)C(=O)N[C@@H](Cc1c[nH]c2ccccc12)C(=O)N[C@@H](CC(C)C)C(=O)N[C@@H](CC(C)C)C(=O)N[C@@H](CCCNC(=N)N)C(=O)NCC(=O)NCC(=O)N1CCC[C@H]1C(=O)N[C@@H](CCC(=O)O)C(=O)N[C@@H](CO)C(=O)NCC(=O)N[C@@H](C)C(=O)N1CCC[C@H]1C(=O)N1CCC[C@H]1C(=O)N1CCC[C@H]1C(=O)N[C@@H](CO)C(=O)O [Compound No. 13] (H-Y[Aib]EGTFTSDYSIYLEK([εLys-εLys-γGlu-C18 diacid])QAAREFIEWLLRGGPESGAPPPS-OH) | 0.29 | – | –
CC[C@H](C)[C@H](NC(=O)[C@H](Cc1ccccc1)NC(=O)[C@H](CCC(=O)O)NC(=O)[C@H](CCCNC(=N)N)NC(=O)[C@H](C)NC(=O)[C@H](C)NC(=O)[C@H](CCC(N)=O)NC(=O)[C@H](CCC(=O)O)NC(=O)[C@H](CCC(=O)O)NC(=O)[C@H](CC(C)C)NC(=O)[C@H](CC(C)C)NC(=O)[C@@H](NC(=O)[C@H](CO)NC(=O)[C@H](Cc1ccc(O)cc1)NC(=O)[C@H](CC(=O)O)NC(=O)[C@H](CO)NC(=O)[C@@H](NC(=O)[C@H](Cc1ccccc1)NC(=O)[C@@H](NC(=O)CNC(=O)[C@H](CCC(=O)O)NC(=O)C(C)(C)NC(=O)[C@@H](N)Cc1ccc(O)cc1)[C@@H](C)O)[C@@H](C)O)[C@@H](C)CC)C(=O)N[C@@H](CCC(=O)O)C(=O)N[C@@H](Cc1c[nH]c2ccccc12)C(=O)N[C@@H](CC(C)C)C(=O)N[C@@H](CC(C)C)C(=O)N[C@@H](C)C(=O)NCC(=O)NCC(=O)N1CCC[C@H]1C(=O)N[C@@H](CO)C(=O)N[C@@H](CCCCNC(=O)[C@@H](N)CCCCNC(=O)[C@@H](N)CCCCNC(=O)CC[C@H](NC(=O)CCCCCCCCCCCCCCCCC(=O)O)C(=O)O)C(=O)NCC(=O)N[C@@H](C)C(=O)N1CCC[C@H]1C(=O)N1CCC[C@H]1C(=O)N1CCC[C@H]1C(=O)N[C@@H](CO)C(=O)O [Compound No. 43] (H-Y[Aib]EGTFTSDYSILLEEQAAREFIEWLLAGGPSK([εLys-εLys-γGlu-C18 diacid])GAPPPS-OH) | – | 0.22 kg/L | –
CC[C@H](C)[C@H](NC(=O)[C@H](Cc1ccccc1)NC(=O)[C@H](CCC(=O)O)NC(=O)[C@H](Cc1c[nH]cn1)NC(=O)[C@H](C)NC(=O)[C@H](C)NC(=O)[C@H](CCC(N)=O)NC(=O)[C@H](CCCCNC(=O)[C@@H](N)CCCCNC(=O)[C@@H](N)CCCCNC(=O)CC[C@H](NC(=O)CCCCCCCCCCCCCCCCC(=O)O)C(=O)O)NC(=O)[C@H](CCC(=O)O)NC(=O)[C@H](CC(C)C)NC(=O)[C@H](CC(C)C)NC(=O)[C@@H](NC(=O)[C@H](CO)NC(=O)[C@H](Cc1ccc(O)cc1)NC(=O)[C@H](CC(=O)O)NC(=O)[C@H](CO)NC(=O)[C@@H](NC(=O)[C@H](Cc1ccccc1)NC(=O)[C@@H](NC(=O)CNC(=O)[C@H](CCC(=O)O)NC(=O)C(C)(C)NC(=O)[C@@H](N)Cc1ccc(O)cc1)[C@@H](C)O)[C@@H](C)O)[C@@H](C)CC)C(=O)N[C@@H](CC(N)=O)C(=O)N[C@@H](Cc1c[nH]c2ccccc12)C(=O)N[C@@H](CC(C)C)C(=O)N[C@@H](CC(C)C)C(=O)N[C@@H](C)C(=O)NCC(=O)NCC(=O)N1CCC[C@H]1C(=O)N[C@@H](CO)C(=O)N[C@@H](CO)C(=O)NCC(=O)N[C@@H](C)C(=O)N1CCC[C@H]1C(=O)N1CCC[C@H]1C(=O)N1CCC[C@H]1C(=O)N[C@@H](CO)C(=O)O [Compound No. 26] (H-Y[Aib]EGTFTSDYSILLEK([εLys-εLys-γGlu-C18 diacid])QAAHEFINWLLAGGPSSGAPPPS-OH) | – | 0.49* kg/L | –
CC[C@H](C)[C@H](NC(=O)[C@H](Cc1ccccc1)NC(=O)[C@H](CCC(=O)O)NC(=O)[C@H](CCCNC(=N)N)NC(=O)[C@H](C)NC(=O)[C@H](C)NC(=O)[C@H](CCC(N)=O)NC(=O)[C@H](CCCCNC(=O)[C@@H](N)CCCCNC(=O)[C@@H](N)CCCCNC(=O)CC[C@H](NC(=O)CCCCCCCCCCCCCCCCC(=O)O)C(=O)O)NC(=O)[C@H](CCC(=O)O)NC(=O)[C@H](CC(C)C)NC(=O)[C@H](Cc1ccc(O)cc1)NC(=O)[C@@H](NC(=O)[C@H](CO)NC(=O)[C@H](Cc1ccc(O)cc1)NC(=O)[C@H](CC(=O)O)NC(=O)[C@H](CO)NC(=O)[C@@H](NC(=O)[C@H](Cc1ccccc1)NC(=O)[C@@H](NC(=O)CNC(=O)[C@H](CCC(=O)O)NC(=O)C(C)(C)NC(=O)[C@@H](N)Cc1ccc(O)cc1)[C@@H](C)O)[C@@H](C)O)[C@@H](C)CC)C(=O)N[C@@H](CCC(=O)O)C(=O)N[C@@H](Cc1c[nH]c2ccccc12)C(=O)N[C@@H](CC(C)C)C(=O)N[C@@H](CC(C)C)C(=O)N[C@@H](C)C(=O)NCC(=O)NCC(=O)N1CCC[C@H]1C(=O)N[C@@H](CO)C(=O)N[C@@H](CO)C(=O)NCC(=O)N[C@@H](C)C(=O)N1CCC[C@H]1C(=O)N1CCC[C@H]1C(=O)N1CCC[C@H]1C(=O)N[C@@H](CO)C(=O)O [Compound No. 9] (H-Y[Aib]EGTFTSDYSIYLEK([εLys-εLys-γGlu-C18 diacid])QAAREFIEWLLAGGPSSGAPPPS-OH) | – | 0.24 kg/L | –
CC[C@H](C)[C@H](NC(=O)[C@H](Cc1ccccc1)NC(=O)[C@H](CCC(=O)O)NC(=O)[C@H](CCCNC(=N)N)NC(=O)[C@H](C)NC(=O)[C@H](C)NC(=O)[C@H](CCC(N)=O)NC(=O)[C@H](CCCCNC(=O)COCCOCCNC(=O)COCCOCCNC(=O)CC[C@H](NC(=O)CCCCCCCCCCCCCCCCC(=O)O)C(=O)O)NC(=O)[C@H](CCC(=O)O)NC(=O)[C@H](CC(C)C)NC(=O)[C@H](Cc1ccc(O)cc1)NC(=O)[C@@H](NC(=O)[C@H](CO)NC(=O)[C@H](Cc1ccc(O)cc1)NC(=O)[C@H](CC(=O)O)NC(=O)[C@H](CO)NC(=O)[C@@H](NC(=O)[C@H](Cc1ccccc1)NC(=O)[C@@H](NC(=O)CNC(=O)[C@H](CCC(=O)O)NC(=O)C(C)(C)NC(=O)[C@@H](N)Cc1ccc(O)cc1)[C@@H](C)O)[C@@H](C)O)[C@@H](C)CC)C(=O)N[C@@H](CCC(=O)O)C(=O)N[C@@H](Cc1c[nH]c2ccccc12)C(=O)N[C@@H](CC(C)C)C(=O)N[C@@H](CC(C)C)C(=O)N[C@@H](C)C(=O)NCC(=O)NCC(=O)N1CCC[C@H]1C(=O)N[C@@H](CO)C(=O)N[C@@H](CO)C(=O)NCC(=O)N[C@@H](C)C(=O)N1CCC[C@H]1C(=O)N1CCC[C@H]1C(=O)N1CCC[C@H]1C(=O)N[C@@H](CO)C(=O)O [Compound No. 10] (H-Y[Aib]EGTFTSDYSIYLEK([AEEA-AEEA-γGlu-C18 diacid])QAAREFIEWLLAGGPSSGAPPPS-OH) | – | 0.20 kg/L | 8.4
